From ChEMBL document CHEMBL1130862, “Synthesis and acetylcholinesterase inhibitory activity of (+/-)-14-fluorohuperzine A” (Bioorg Med Chem Lett, 1998) come the findings set out here.

The target of this assay is T1, Acetylcholinesterase (Rattus norvegicus, UniProt P37136).
T1 sequence (P37136 whole entry): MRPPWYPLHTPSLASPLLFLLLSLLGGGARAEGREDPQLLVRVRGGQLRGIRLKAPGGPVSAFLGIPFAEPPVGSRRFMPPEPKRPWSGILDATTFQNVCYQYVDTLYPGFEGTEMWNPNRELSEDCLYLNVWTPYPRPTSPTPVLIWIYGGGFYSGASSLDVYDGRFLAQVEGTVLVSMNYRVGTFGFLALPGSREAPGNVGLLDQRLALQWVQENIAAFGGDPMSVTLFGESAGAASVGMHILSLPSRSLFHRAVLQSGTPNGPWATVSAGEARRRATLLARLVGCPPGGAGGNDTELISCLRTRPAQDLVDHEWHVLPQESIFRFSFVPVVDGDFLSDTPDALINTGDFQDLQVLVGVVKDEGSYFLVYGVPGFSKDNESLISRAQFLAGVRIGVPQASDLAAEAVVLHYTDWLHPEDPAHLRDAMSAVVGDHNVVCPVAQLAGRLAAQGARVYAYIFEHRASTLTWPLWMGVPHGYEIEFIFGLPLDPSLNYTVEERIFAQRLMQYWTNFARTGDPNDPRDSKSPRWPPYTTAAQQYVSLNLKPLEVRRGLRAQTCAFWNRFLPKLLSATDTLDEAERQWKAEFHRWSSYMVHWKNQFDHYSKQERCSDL
In words: In vitro inhibitory activity against Acetylcholinesterase (AChE) using rat brain hippocampal crude homogenates. Format: tissue-based, Hippocampus.

As a reminder, the IC50 is the midpoint of a concentration-inhibition curve. Read a low IC50 as greater potency. The compound `CC1=CC2Cc3nc(O)ccc3C(N)(C1)/C2=C/CF` (stereo unspecified) yielded an IC50 of 10 µM.
